Among the data in patent US10336735B2, “Small molecule inhibitors of fibrosis” (THE CALIFORNIA INSTITUTE FOR BIOMEDICAL RESEARCH, priority 2014, dated 2019) are EC50 values, retold here.

By EC50 is commonly meant the concentration that produces a half-maximal response. A high value points to weaker potency.

The test system of the first assay is primary human lung fibroblasts and primary rodent HSCs. As to the kind of experiment: High content imaging assay (α-SMA staining, cell morphology) of fibroblast to myofibroblast transdifferentiation, confirmed by Western blot and RT-PCR. The conditions noted are these: Homo sapiens, Fibroblast; imaging and western based activity. The source says:
High content imaging assays have been established, using primary human lung fibroblasts and primary rodent HSCs, that enable the identification of small molecules that either inhibit myofibroblast formation/activation or induce the reversion of activated myofibroblasts to a quiescent fibroblast state. Conditions, involving serum starvation and subsequent TGF-β treatment, have been identified that facilitate robust in vitro transdifferentiation in a miniaturized (384 well plate) format that is amenable to high throughput small molecule screening. The inhibition assay is based on α-SMA immunofluorescent staining and cell morphology changes associated with fibroblast to myofibroblast transdifferentiation, Using the selective ALK-5 TGF-β1 receptor inhibitor ([…]) as a positive control, the inhibition assay has been used to initiate a screen of a collection of ˜100,000 small molecules that consists of bioactive small molecules and a diversity set that has been assembled based on 2D and 3D structural diversity and inherent “drug-likeness” properties. Preliminary screening led to the identification of multiple previously identified anti-fibrotic molecules.
A high content imaging assay, based on α-SMA staining and cell morphological changes associated with fibroblast to myofibroblast transdifferentiation, was established using primary human lung fibroblasts and primary rodent HSCs. Conditions, involving serum starvation and subsequent TGF-β treatment, were identified that facilitate robust in vitro transdifferentiation in a miniaturized (384 well plate) format that is amenable to high throughput small molecule screening. A selective ALK-5 TGF-β1 receptor inhibitor (SB-431542) was used as a positive control. […] This assay was used to evaluate compounds of Formula (I), (Ia), (II), (IIa), (III), (IIIa), (IV), (IVa), (IVb), (V), (Va), (VI), (VIa), (VIb), (VIc), (VII), (VIIa), (VIII), (VIIIa), (IX), (IXa), (X), or (Xa) generated from medicinal chemistry efforts.
The activity of Itraconazole and compounds of Formula (I), (Ia), (II), (IIa), (III), (IIIa), (IV), (IVa), (IVb), (V), (Va), (VI), (VIa), (VIb), (VIc), (VII), (VIIa), (VIII), (VIIIa), (IX), (IXa), (X), or (Xa) was confirmed by analyzing changes in gene expression of multiple genes associated with fibroblast to myofibroblast transdifferentiation using biochemical methods (i.e., Western blot and RT-PCR). These 4-day assays were used to evaluate sets of 6 compounds at a time in 4-point dose response fashion.
The EC50 for (imaging and western based) activity is graded as: +++=<500 nM; ++=500 nM to 5 μM; +=5 to 30 μM); −=>30 μM; NT=Not Tested.
(In general: Immunoblotting shows a protein as a band on a membrane.)
Regarding `CCC(C)n1ncn(-c2ccc(N3CCN(c4ccc(OC[C@@H]5CO[C@@](Cn6nccn6)(c6ccc(Cl)cc6Cl)O5)cn4)CC3)cc2)c1=O` (some centres unmarked) [Compound 53], the EC50 was in the range of 500 to 5000 nM.
On the same count and under the same terms, next, `CCC(C)n1ncn(-c2ccc(N3CCN(c4ccc(OC[C@@H]5CO[C@@](Cc6ccnnc6)(c6cccc(C#N)c6)O5)cc4)CC3)cc2)c1=O` (some centres unmarked) [Compound 130]: 500 to 5000 nM.
As to `CCC(C)n1ncn(-c2ccc(N3CCN(c4ccc(OC[C@@H]5CO[C@@](Cn6nccn6)(c6ccccc6)O5)cc4)CC3C)cc2)c1=O` (some centres unmarked) [Compound 73], the EC50 lay within 5000 to 30000 nM.
Still for that read-out and setting: next, `CCC(C)n1ncn(-c2ccc(N3CCN(c4ccc(OC[C@@H]5CO[C@@](Cn6nccn6)(c6ccc(Cl)cc6Cl)O5)c(C#N)c4)CC3)cc2)c1=O` (some centres unmarked) [Compound 57]: less than 500 nM; `CCC(C)n1ncn(-c2ccc(N3CCN(c4ccc(OC[C@@H]5CO[C@](Cc6ccnnc6)(c6cccc(C#N)c6)O5)cc4)CC3)cc2)c1=O` (some centres unmarked) [Compound 110]: 5000 to 30000 nM.
In turn, `CC(C)n1ncn(-c2ccc(N3CCN(c4ccc(OC[C@@H]5CO[C@@](Cn6nccn6)(c6ccccc6)O5)cc4)CC3)cc2)c1=O` [Compound 18] yielded an EC50 of 5000 to 30000 nM.
On the same count and under the same terms, next, `CCC(C)n1ncn(-c2ccc(N3CCN(c4ccc(OC[C@@H]5CO[C@@](Cn6cccn6)(c6ccccc6Cl)O5)cc4)CC3)cc2)c1=O` (some centres unmarked) [Compound 83]: less than 500 nM; `CCC(C)n1ncn(-c2ccc(N3CCN(c4ccc(OC[C@@H]5CO[C@@](Cn6nccn6)(c6cc(Cl)ccc6Cl)O5)cc4)CC3)cc2)c1=O` (some centres unmarked) [Compound 33]: 500 to 5000 nM.
On to `CCC(C)n1ncn(-c2ccc(N3CCN(c4ccc(OC[C@@H]5CO[C@@](CC)(c6ccc(Cl)cc6Cl)O5)cc4)CC3)cc2)c1=O` (some centres unmarked) [Compound 40], for which the EC50 was in the range of 500 to 5000 nM.
On the same count and under the same terms, next, `CCC(CC)n1ncn(-c2ccc(N3CCN(c4ccc(OC[C@H]5CO[C@](Cn6cccn6)(c6ccccc6)O5)cc4)CC3)cc2)c1=O` [Compound 167]: less than 500 nM.
In the case of `CC[C@@H](C)n1ncn(-c2ccc(N3CCN(c4ccc(OC[C@@H]5CO[C@@](Cn6cccn6)(c6ccccc6)O5)cc4)CC3)cc2)c1=O` [Compound 169], the half-maximal effective concentration (EC50) was less than 500 nM.
On the same count and under the same terms, next, `CCC(C)n1ncn(-c2ccc(N3CCN(c4ccc(OC[C@@H]5CO[C@@](Cn6cccn6)(c6ccccc6)O5)cc4)CC3)cc2)c1=O` (some centres unmarked) [Compound 48]: less than 500 nM.
`CCC(CC)n1ncn(-c2ccc(N3CCN(c4ccc(OC[C@H]5CO[C@](Cn6nccn6)(c6ccc(Cl)cc6Cl)O5)cc4F)CC3)cc2)c1=O` [Compound 165] had an EC50 of less than 500 nM.
As to `CC[C@H](C)n1ncn(-c2ccc(N3CCN(c4ccc(OC[C@H]5CO[C@](Cn6nccn6)(c6ccccc6)O5)cc4)CC3)cc2)c1=O` [Compound 183, 4-(4-(4-(4-(((2R,4S)-2-((2H-1,2,3-triazol-2-yl)methyl)-2-phenyl-1,3-dioxolan-4-yl)methoxy)phenyl)piperazin-1-yl)phenyl)-(S)-1-sec-butyl-1H-1,2,4-triazol-5(4H)-one], the EC50 is less than 500 nM.
The molecule `CCC(C)n1ncn(-c2ccc(N3CCN(c4ccc(OC[C@@H]5CO[C@](Cc6ccnnc6)(c6cccc(Cl)c6)O5)cc4)CC3)cc2)c1=O` (some centres unmarked) [Compound 104] yielded an EC50 of 500 to 5000 nM.
For the molecule `CCC(C)n1ncn(-c2ccc(N3CCN(c4ccc(OC[C@@H]5CO[C@](Cc6ccnnc6)(c6ccc(OC)cc6)O5)cc4)CC3)cc2)c1=O` (some centres unmarked) [Compound 109], the EC50 fell in the range of 500 to 5000 nM.
Same read-out and setting: next, `CCC(C)n1ncn(-c2ccc(N3CCN(c4ccc(OC[C@@H]5CO[C@@](Cc6ccnnc6)(c6cccc(C)c6)O5)cc4)CC3)cc2)c1=O` (some centres unmarked) [Compound 137]: less than 500 nM; `CCC(C)n1ncn(-c2ccc(N3CCN(c4ccc(OC[C@@H]5CO[C@@](Cn6ncc(Cl)c(Cl)c6=O)(c6ccc(Cl)cc6Cl)O5)cc4)CC3)cc2)c1=O` (some centres unmarked) [Compound 42]: 5000 to 30000 nM.
With `CC[C@H](C)n1ncn(-c2ccc(N3CCN(c4ccc(OC[C@H]5CO[C@](Cn6cccn6)(c6ccccc6)O5)cc4)CC3)cc2)c1=O` [Compound 170], the EC50 was less than 500 nM.
Same read-out and setting: next, `CCC(C)n1ncn(-c2ccc(N3CCN(c4ccc(OC[C@@H]5CO[C@@](Cc6ccnnc6)(c6ccccc6C(F)(F)F)O5)cc4)CC3)cc2)c1=O` (some centres unmarked) [Compound 132]: less than 500 nM.
On to `CCC(C)n1ncn(-c2ccc(N3CCCN(c4ccc(OC[C@@H]5CO[C@@](Cn6nccn6)(c6ccc(Cl)cc6Cl)O5)cc4)CC3)cc2)c1=O` (some centres unmarked) [Compound 74], for which the 50% effective concentration (EC50) is 500 to 5000 nM.
The same measure, in the same setting: next, `CCC(C)n1cnn(-c2ccc(N3CCN(c4ccc(OC[C@@H]5CO[C@@](Cc6ccccc6)(c6ccccc6)O5)cc4)CC3)cc2)c1=O` (some centres unmarked) [Compound 150]: more than 30000 nM; `CCC(C)n1ncn(-c2ccc(N3CCN(c4ccc(OC[C@@H]5CO[C@@](Cn6nccn6)(c6ccc(Cl)cc6Cl)O5)cc4)CC3)cc2)c1=S` (some centres unmarked) [Compound 75]: more than 30000 nM; `CCC(C)n1ncn(-c2ccc(N3CCN(c4ccc(OC[C@@H]5CO[C@](Cc6ccnnc6)(c6cccc(C)c6)O5)cc4)CC3)cc2)c1=O` (some centres unmarked) [Compound 117]: 500 to 5000 nM.
On the same count and under the same terms, next, `CCC(C)n1ncn(-c2ccc(N3CCN(c4ccc(OC[C@@H]5CO[C@@](Cn6nccn6)(c6ccccc6)O5)cc4C#N)CC3)cc2)c1=O` (some centres unmarked) [Compound 66]: less than 500 nM.
In turn, `CC[C@@H](C)n1ncn(-c2ccc(N3CCN(c4ccc(OC[C@H]5CO[C@](Cn6nccn6)(c6ccccc6)O5)cc4)CC3)cc2)c1=O` [Compound 182, 4-(4-(4-(4-(((2R,4S)-2-((2H-1,2,3-triazol-2-yl)methyl)-2-phenyl-1,3-dioxolan-4-yl)methoxy)phenyl)piperazin-1-yl)phenyl)-(R)-1-sec-butyl-1H-1,2,4-triazol-5(4H)-one] came in with an EC50 of less than 500 nM.
On the same count and under the same terms, next, `CCC(C)n1ncn(-c2ccc(N3CCN(c4ccc(OC[C@@H]5CO[C@@](Cn6nccn6)(c6ccc(Cl)cc6Cl)O5)cc4CN)CC3)cc2)c1=O` (some centres unmarked) [Compound 55]: less than 500 nM; `N#Cc1cc(OC[C@@H]2CO[C@@](Cn3nccn3)(c3ccccc3)O2)ccc1N1CCN(c2ccc(-n3cnn(CC4CCCC4)c3=O)cc2)CC1` [Compound 156]: 500 to 5000 nM; `CCC(CC)n1ncn(-c2ccc(N3CCN(c4ccc(OC[C@@H]5CO[C@@](Cn6cccn6)(c6ccccc6)O5)cc4)CC3)cc2)c1=O` [Compound 166]: less than 500 nM.
Same read-out and setting: next, `CC[C@H](C)n1ncn(-c2ccc(N3CCN(c4ccc(OC[C@H]5CO[C@@](Cn6nccn6)(c6ccccc6)O5)cc4)CC3)cc2)c1=O` [Compound 185]: less than 500 nM; `O=c1n(-c2ccc(N3CCN(c4ccc(OC[C@@H]5CO[C@@](Cn6nccn6)(c6ccc(Cl)cc6Cl)O5)cc4)CC3)cc2)cnn1CC1CCCC1` [Compound 14]: less than 500 nM; `CC[C@@H](C)n1ncn(-c2ccc(N3CCN(c4ccc(OC[C@@H]5CO[C@@](Cn6cccn6)(c6ccc(C#N)cc6C)O5)cc4)CC3)cc2)c1=O` [Compound 173]: 500 to 5000 nM.
Same read-out and setting: next, `CCC(C)n1ncn(-c2ccc(N3CCN(c4ccc(OC[C@@H]5CO[C@@](Cn6nccn6)(c6ccccc6)O5)cc4C(F)(F)F)CC3)cc2)c1=O` (some centres unmarked) [Compound 60]: 5000 to 30000 nM; `CCC(C)n1ncn(-c2ccc(N3CCN(c4ccc(OC[C@H]5CO[C@](Cn6nccn6)(c6ccccc6)O5)cc4)CC3)cc2)c1=O` (some centres unmarked) [Compound 181]: less than 500 nM; `CC(C)Cn1ncn(-c2ccc(N3CCN(c4ccc(OC[C@@H]5CO[C@@](Cn6nccn6)(c6ccccc6)O5)cc4)CC3)cc2)c1=O` [Compound 19]: 500 to 5000 nM.
`CCC(C)n1ncn(-c2ccc(N3CCN(c4ccc(OC[C@H]5CO[C@](Cn6nccn6)(c6ccccc6)C5)cc4)CC3)cc2)c1=O` (some centres unmarked) [Compound 147] registered an EC50 of more than 30000 nM.
Molecule `CCC(C)n1ncn(-c2ccc(N3CCN(c4ccc(OC[C@@H]5CO[C@@](Cn6nccn6)(c6ccccc6)O5)cc4F)CC3)cc2)c1=O` (some centres unmarked) [Compound 58] returned an EC50 of less than 500 nM.
In turn, `CCC(C)n1ncn(-c2ccc(N3CCN(c4ccc(OC[C@@H]5CO[C@@](Cc6ccnnc6)(c6ccc(Cl)c(Cl)c6)O5)cc4)CC3)cc2)c1=O` (some centres unmarked) [Compound 126] had an EC50 of less than 500 nM.
`Cc1cc(C#N)ccc1[C@]1(Cn2nccn2)OC[C@@H](COc2ccc(N3CCN(c4ccc(-n5cnn(CC6CCCC6)c5=O)cc4)CC3)cc2)O1` [Compound 25]: the EC50 lay within 500 to 5000 nM.
Consider `CCC(C)n1ncn(-c2ccc(N3CCN(c4ccc(OC[C@@H]5CO[C@@](Cn6nccn6)(c6ccccc6)O5)c(CN)c4)CC3)cc2)c1=O` (some centres unmarked) [Compound 68], for which the EC50 is less than 500 nM.

The assay is the same for the next values; noted with them: imaging and western based activity.
Turning to `CCC(C)n1ncn(-c2ccc(N3CCN(c4ccc(OC[C@@H]5CO[C@](Cn6nccn6)(c6ccccc6)O5)cc4)CC3)cc2)c1=O` (some centres unmarked) [Compound 187], the EC50 lay in the range of 5000 to 30000 nM.
